Experimental data reported in the NIST ThermoML archive (doi:10.1016/j.fluid.2010.10.028).

Test: xn = mol fraction of the nth substance listed
Conditions: Liquid, Vibrating tube method

CC(C)=O [acetone] + CCCCCCC
Conditions	mass density [kg/m3]
347.63 K, 54850 kPa, x1 = 0.492	716.07
347.63 K, 59840 kPa, x1 = 0.801	752.99
347.63 K, 59850 kPa, x1 = 0.492	719.82
347.63 K, 64820 kPa, x1 = 0.801	756.73
347.63 K, 64830 kPa, x1 = 0.492	723.43
347.63 K, 64920 kPa, x1 = 0.611	733.74
347.63 K, 69910 kPa, x1 = 0.801	760.44
347.63 K, 69920 kPa, x1 = 0.611	737.26
347.63 K, 69930 kPa, x1 = 0.492	726.98
347.63 K, 74910 kPa, x1 = 0.492	730.29
347.63 K, 79900 kPa, x1 = 0.492	733.48
347.63 K, 84860 kPa, x1 = 0.801	770.5
347.63 K, 84880 kPa, x1 = 0.492	736.56
347.63 K, 89840 kPa, x1 = 0.801	773.63
347.63 K, 89860 kPa, x1 = 0.492	739.56
347.63 K, 94820 kPa, x1 = 0.801	776.66
347.63 K, 104780 kPa, x1 = 0.801	782.49
347.63 K, 104800 kPa, x1 = 0.492	747.95
347.63 K, 109760 kPa, x1 = 0.611	761.37
347.63 K, 109760 kPa, x1 = 0.801	785.29
347.63 K, 109770 kPa, x1 = 0.492	750.58
347.63 K, 114860 kPa, x1 = 0.801	788.08
347.63 K, 119840 kPa, x1 = 0.801	790.72
347.63 K, 124840 kPa, x1 = 0.492	758.13
347.63 K, 124840 kPa, x1 = 0.611	769.09
347.63 K, 129860 kPa, x1 = 0.492	760.49
347.63 K, 129860 kPa, x1 = 0.801	795.81
347.64 K, 14870 kPa, x1 = 0.611	686.95
347.64 K, 19860 kPa, x1 = 0.611	693.03
347.64 K, 24870 kPa, x1 = 0.611	698.69
347.64 K, 29860 kPa, x1 = 0.611	703.93
347.64 K, 34870 kPa, x1 = 0.611	708.89
347.64 K, 39870 kPa, x1 = 0.611	713.55
347.64 K, 44850 kPa, x1 = 0.611	717.99
347.64 K, 49850 kPa, x1 = 0.611	722.19
347.64 K, 54850 kPa, x1 = 0.611	726.18
347.64 K, 59940 kPa, x1 = 0.611	730.09
347.64 K, 74910 kPa, x1 = 0.611	740.63
347.64 K, 79900 kPa, x1 = 0.611	743.88
347.64 K, 84880 kPa, x1 = 0.611	747.05
347.64 K, 89870 kPa, x1 = 0.611	750.1
347.64 K, 94840 kPa, x1 = 0.611	753.04
347.64 K, 94850 kPa, x1 = 0.492	742.44
347.64 K, 99820 kPa, x1 = 0.492	745.23
347.64 K, 99820 kPa, x1 = 0.611	755.91
347.64 K, 104780 kPa, x1 = 0.611	758.67
347.64 K, 114850 kPa, x1 = 0.492	753.18
347.64 K, 114870 kPa, x1 = 0.611	764.04
347.64 K, 119840 kPa, x1 = 0.611	766.59
347.64 K, 119860 kPa, x1 = 0.492	755.69
347.64 K, 129860 kPa, x1 = 0.611	771.5
357.54 K, 1050 kPa, x1 = 0.7024	664.83
357.54 K, 4810 kPa, x1 = 0.7024	671.47
357.54 K, 9820 kPa, x1 = 0.7024	679.43
357.54 K, 14810 kPa, x1 = 0.7024	686.58
357.54 K, 14860 kPa, x1 = 0.611	677.52
357.54 K, 19810 kPa, x1 = 0.7024	693.14
357.54 K, 24800 kPa, x1 = 0.7024	699.18
357.54 K, 29900 kPa, x1 = 0.7024	704.93
357.54 K, 34880 kPa, x1 = 0.7024	710.21
357.54 K, 39870 kPa, x1 = 0.7024	715.16
357.54 K, 44860 kPa, x1 = 0.7024	719.83
357.54 K, 49860 kPa, x1 = 0.7024	724.29
357.54 K, 54850 kPa, x1 = 0.7024	728.52
357.54 K, 59830 kPa, x1 = 0.7024	732.55
357.54 K, 64830 kPa, x1 = 0.7024	736.42
357.54 K, 69820 kPa, x1 = 0.7024	740.13
357.54 K, 74790 kPa, x1 = 0.7024	743.68
357.54 K, 84760 kPa, x1 = 0.7024	750.39
357.54 K, 94820 kPa, x1 = 0.7024	756.74
357.55 K, 1070 kPa, x1 = 0.611	655.88
357.55 K, 1080 kPa, x1 = 0.492	647.12
357.55 K, 1300 kPa, x1 = 0.4	692.98
357.55 K, 1300 kPa, x1 = 0.8992	692.98
357.55 K, 4850 kPa, x1 = 0.492	653.64
357.55 K, 4860 kPa, x1 = 0.611	662.51
357.55 K, 5030 kPa, x1 = 0.4	699.4
357.55 K, 5030 kPa, x1 = 0.8992	699.4
357.55 K, 9850 kPa, x1 = 0.492	661.43
357.55 K, 9860 kPa, x1 = 0.611	670.41
357.55 K, 10030 kPa, x1 = 0.4	707.18
357.55 K, 10030 kPa, x1 = 0.8992	707.18
357.55 K, 14850 kPa, x1 = 0.492	668.43
357.55 K, 15010 kPa, x1 = 0.4	714.27
357.55 K, 15010 kPa, x1 = 0.8992	714.27
357.55 K, 19840 kPa, x1 = 0.492	674.79
357.55 K, 19870 kPa, x1 = 0.611	684.02
357.55 K, 20010 kPa, x1 = 0.4	720.81
357.55 K, 20010 kPa, x1 = 0.8992	720.81
357.55 K, 24840 kPa, x1 = 0.492	680.72
357.55 K, 24850 kPa, x1 = 0.611	689.97
